Data on two compounds can be found in patent US8951752B2, “N-demethyase genes and uses thereof” (priority 2011, dated 2015).

One assay concerns Pseudomonas putida CBB5. Description: Resting cell degradation of caffeine in coffee extract, black tea extract and buffer by CBB5. The class given is cell-based.
A further assay addresses T1, NdmA-His6 (Pseudomonas putida, UniProt H9N289).
T1 construct: made in house; host or cells: E. coli BL21(DE3)
T1 sequence (H9N289 1-351): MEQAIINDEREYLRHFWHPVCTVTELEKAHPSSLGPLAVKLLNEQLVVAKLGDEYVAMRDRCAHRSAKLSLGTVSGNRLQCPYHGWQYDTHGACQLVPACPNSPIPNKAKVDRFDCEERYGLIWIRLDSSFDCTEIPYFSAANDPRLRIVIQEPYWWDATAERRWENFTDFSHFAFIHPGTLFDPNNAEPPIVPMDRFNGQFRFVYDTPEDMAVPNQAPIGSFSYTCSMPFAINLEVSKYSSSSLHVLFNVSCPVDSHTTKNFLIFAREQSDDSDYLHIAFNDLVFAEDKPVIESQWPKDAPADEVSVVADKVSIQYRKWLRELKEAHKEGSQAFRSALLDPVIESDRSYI
Description: Methylxanthine N-demethylase assay and kinetics, NdmA-His6 with His6-NdmD. In kind it is biochemical, Pseudomonas putida CBB5. How it is done: (§1) Methylxanthine N-demethylase activity assay contained, in 1-ml total volume, 0.5 mM methylxanthine, 1 mM NADH, 50 μM Fe(NH4)2(SO4)2, and an appropriate amount of NdmA-His6 or NdmB-His6 (7.4 μg-2.5 mg protein depending on substrate specificity) in 50 mM KPi buffer (pH 7.5). Approximately 4 U of partially purified reductase, prepared as described previously (Summers et al., 2011) or 59 U of purified His6-NdmD was added to reaction mixture. Catalase from bovine liver (4,000 U) was also added to reactions containing His6-NdmD. The reaction mixture was incubated at 30° C. with 300 rpm shaking on an incubating microplate shaker (VWR, Radnor, Pa.). Periodically, a small aliquot was sampled from the reaction mixture and mixed with equal volume of acetonitrile for quantifying concentrations of methylxanthines and N-demethylated products by HPLC. One unit of N-demethylase activity was defined as the consumption of one […] methylxanthine per minute.
(§2) Apparent kinetic parameters of NdmA-His6 and NdmB-His6 were determined by measuring the initial rate of disappearance (vo) of methylxanthines in 50 mM KPi buffer (pH 7.5) at 30° C. The initial substrate concentrations (ESI) used in these experiments were from 25 to 500 μM. Substrates were incubated with His6-NdmD plus either NdmA-His6 or NdmB-His6 under standard conditions for 15 minutes. At 1, 5, 10, and 15 minutes, samples were removed from the reaction mixtures to quantitate substrate concentrations by HPLC. Plots of substrate concentrations against time were used to determine the initial rates of disappearance of substrates which were linear over 15 minutes. The apparent kinetic parameters were determined from Michaelis-Menten plots of vo against [S] fitted with the equation

In assay [1] the test system is E. coli cells expressing NdmABCDE. Description: Conversion by recombinant E. coli cells with NdmE. The class given is cell-based.
For assay [2], the system named is recombinant E. coli cells that contain NdmABCD. Briefly: Conversion by recombinant E. coli cells without NdmE. In kind it is cell-based. The settings on record: absence of NdmE.
Assay [3] concerns the target T2, N-demethylase (Ndm: NdmA and NdmB subunits) (Pseudomonas putida, UniProt H9N289+H9N290).
T2 construct: lane 3, natural Ndm purified from P. putida CBB5; made in house; host or cells: purified from the natural strain Pseudomonas putida CBB5 (DEAE, Phenyl and Q Sepharose); not recombinant
T2 sequence (H9N289 1-351): T1 sequence (H9N289 1-351)
T2 sequence (H9N290 1-355): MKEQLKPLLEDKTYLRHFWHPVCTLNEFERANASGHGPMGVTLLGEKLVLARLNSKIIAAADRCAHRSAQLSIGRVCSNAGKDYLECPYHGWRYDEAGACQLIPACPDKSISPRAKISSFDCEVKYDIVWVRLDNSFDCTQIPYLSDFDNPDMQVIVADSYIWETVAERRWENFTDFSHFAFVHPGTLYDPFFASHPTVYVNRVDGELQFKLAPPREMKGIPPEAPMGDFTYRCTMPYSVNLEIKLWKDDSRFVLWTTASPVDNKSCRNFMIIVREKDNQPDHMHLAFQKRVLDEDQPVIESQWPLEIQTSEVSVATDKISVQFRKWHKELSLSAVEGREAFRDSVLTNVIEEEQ
Briefly: Methylxanthine N-demethylase activity assay with purified Ndm plus partially purified Ccr. The settings on record: for Products identified: same products at 500 and 200 μM substrate; for Relative N-demethylase activity: relative to paraxanthine; for product formed from paraxanthine: 7.4 mU / 7.4 units of Ndm, 90 minutes. The class given is biochemical, Pseudomonas putida CBB5. As to the method:
Methylxanthine N-demethylase activity assay contained, in 1-mL total volume, 0.5 mM methylxanthine, 1 mM NADH, 50 μM Fe(NH4)2(SO4)2, and an appropriate amount of Ndm (0.08-7.5 mg protein, depending on purity of the protein) in 50 mM KPi buffer. Approximately 4 U of partially purified Ccr was added to reaction mixture when assaying Ndm in Phenyl Sepharose and Q Sepharose eluant-fractions (Ccr was not added to the enzyme reaction mixture when assaying Ndm activity in DEAE Sepharose eluant-fractions because Ccr co-eluted with Ndm). The reaction mixture was incubated at 30° C. with 300 rpm shaking on an incubating microplate shaker (VWR). Periodically, a small aliquot was sampled from the reaction mixture and mixed with equal volume of acetonitrile for quantifying concentrations of methylxanthines and N-demethylated products by HPLC. One unit of N-demethylase activity was defined as the consumption of one μmole methylxanthine per minute. When Ndm was coupled with the reductase and ferredoxin components of naphthalene dioxygenase of Pseudomonas sp. strain 9816 (Haigler & Gibson, 1990a; Haigler & Gibson, 1990b), 30 and 100 μg of the respective proteins were used. Spinach ferredoxin reductase and ferredoxin were also substituted for Ccr as described by Subramanian et al. (1979).
Determination of Kinetic Parameters. Apparent kinetic parameters of Ndm were determined by measuring the initial rate of disappearance (vo) of paraxanthine or 7-methylxanthine in 50 mM KPi buffer (pH 7.5) at 30° C. The paraxanthine and 7-methylxanthine concentrations ([S]) used in these experiments were from 20 to 500 μM. Substrates were incubated with Ndm and Ccr under standard conditions for 15 minutes. At 1, 5, 10, and 15 minutes, samples were removed from the reaction mixtures to quantitate substrate concentrations by HPLC. Plots of substrate concentrations against time were used to determine the initial rates of disappearance of substrates which were linear over 15 minutes. The apparent kinetic parameters were determined from Michaelis-Menten plots of Vo against [S] fitted with the equation
Determination of Oxygen Requirement. Oxygen consumption by Ndm during N-demethylation of paraxanthine was determined in a closed reaction vessel equipped with a Clarke-type oxygen electrode (Digitial Modell 0, Rank Brothers Ltd., Cambridge, England). The electrode was calibrated by using glucose oxidase (Sigma) and glucose for consumption of oxygen. Ndm activity assay was performed at 30° C. in a total volume of 1 ml of air-saturated 50 mM KPi buffer (pH 7.5) with 100 μM paraxanthine, 200 μM NADH, 50 μM Fe(NH4)2(SO4)2, 0.2 mg purified Ndm, and 4 U partially purified Ccr. The reaction was initiated by adding Ndm and partially purified Ccr after equilibration of all other reaction components for 3.3 minutes. After 13 minutes, a 100-μL aliquot was withdrawn from the reaction, immediately mixed with equal volume of acetonitrile to stop the enzyme reaction, and analyzed for N-demethylation product by HPLC. Background oxygen consumption, possibly due to NADH oxidase enzyme activity in the partially purified Ccr, was quantitated in control reactions containing all reaction components except paraxanthine.
Formaldehyde Determination. […] Twenty μL Nash reagent was added to 50 μl Ndm reaction sample plus 50 μl acetonitrile. This mixture was incubated at 51° C. for 12 minutes.

The subject of the next assay is bacteria. The settings on record: 0.1% concentration; cited from earlier work.
Another assay has as its target T3, NdmB-His6 (Pseudomonas putida, UniProt H9N290).
T3 construct: made in house; host or cells: E. coli BL21(DE3)
T3 sequence (H9N290 1-355): T2 sequence (H9N290 1-355)
Description: Methylxanthine N-demethylase assay and kinetics, NdmB-His6 with His6-NdmD. In kind it is biochemical, Pseudomonas putida CBB5. How it is done:
as §1, §2

The subject of assay [4] is cell extracts prepared from P. putida CBB5. Description: NADH-dependent N-demethylase activity of CBB5 cell extracts. The class given is biochemical, Pseudomonas putida CBB5. The conditions noted are these: 0.5 mM substrate, 7.2 mg mL^−1 protein.
For the next assay, the target named is His6-NdmD (Pseudomonas putida, UniProt H9N291). Briefly: N-demethylase activity of purified His6-NdmD alone. In kind it is biochemical, Pseudomonas putida CBB5.
Sequence of His6-NdmD (H9N291 1-588 with tags or gaps): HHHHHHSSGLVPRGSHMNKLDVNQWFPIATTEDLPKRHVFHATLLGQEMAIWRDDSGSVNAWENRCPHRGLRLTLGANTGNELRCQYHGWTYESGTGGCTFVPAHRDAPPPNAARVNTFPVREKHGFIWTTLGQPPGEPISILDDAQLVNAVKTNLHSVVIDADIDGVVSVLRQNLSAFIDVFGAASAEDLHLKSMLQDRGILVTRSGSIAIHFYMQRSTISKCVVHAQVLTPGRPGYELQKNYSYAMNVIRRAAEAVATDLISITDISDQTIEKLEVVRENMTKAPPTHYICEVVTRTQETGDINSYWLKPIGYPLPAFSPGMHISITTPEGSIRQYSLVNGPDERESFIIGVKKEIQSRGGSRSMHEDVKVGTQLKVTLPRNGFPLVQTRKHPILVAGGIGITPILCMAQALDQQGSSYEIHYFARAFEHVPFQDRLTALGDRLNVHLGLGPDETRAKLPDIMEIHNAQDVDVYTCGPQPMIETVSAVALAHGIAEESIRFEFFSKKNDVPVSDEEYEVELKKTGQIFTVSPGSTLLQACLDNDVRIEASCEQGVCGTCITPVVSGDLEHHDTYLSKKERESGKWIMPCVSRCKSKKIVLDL

Molecules are shown by their SMILES. Several values for one entry are separate records, joined by “and”; a condition that tells them apart may be missing. Equal values may be shown once.

`Cn1c(=O)c2c(ncn2C)n(C)c1=O` [Caffeine, 1,3,7-trimethylxanthine]: the “N-demethylation by NdmC fraction” value in the assay on NdmC is “not N-demethylated”. Further, the “time for caffeine degradation” value was 2 h in the assay with Pseudomonas putida CBB5 (18 mM (highest concentration) caffeine in buffer solution), 6 h in the assay with Pseudomonas putida CBB5 (18 mM caffeine in coffee extract) and at most 0.667 h in the assay on Pseudomonas putida CBB5 (diluted black tea extract (1 mM caffeine)). Further, in the assay on Pseudomonas putida CBB5 (undiluted black tea extract (8 mM caffeine)), the “time for caffeine disappearance” value stood at 40 min. Besides, the Product result at NdmA-His6 (NdmA-His6) is “Theobromine”; on NdmA-His6 (NdmA-His6, listed as caffeine), “theobromine”; on NdmB-His6 (NdmB-His6), “Paraxanthine”. Besides, the conversion product result in [1] was “xanthine”. Moreover, the conversion by cells in [2] is on record as 7-methylxanthine from caffeine, but not xanthine. For the same compound, the Products identified entry in [3] was “paraxanthine, and theobromine, and 7-methylxanthine, and xanthine”. Besides, the “Relative N-demethylase activity” value in assay [3] (substrate conc. 200 μM) was determined as 48.2 ± 4.8; in assay [3] (substrate conc. 500 μM), 30.8 ± 1.7. In the assay on bacteria, the “effect on protein synthesis in bacteria and yeast” value was “inhibits protein synthesis”. Also, the “degradation rate compared with paraxanthine” value in [4] is “significantly slower”.
Take `Cn1cnc2[nH]c(=O)[nH]c(=O)c21` [7-Methylxanthine, 7-methylxanthine]: the “N-demethylation by NdmC fraction” value in the assay with NdmC is “sole substrate”. Further, the figures for the “N-demethylase activity” value at NdmA-His6 (NdmA) and on NdmB-His6 (NdmB) were “inactive” and “no activity”, respectively. For the same compound, the Km result on NdmA-His6 (NdmA-His6, 30° C., pH 7.5, ∞ where no activity) was “∞”; at NdmB-His6 (NdmB-His6, 30° C., pH 7.5, ∞ where no activity) it was “∞”. Also, the conversion product result in assay [1] is “xanthine”. In addition, the conversion by cells entry in [2] is on record as “remained untouched”. On His6-NdmD, the “activity of purified His6-NdmD” value is recorded as “no activity”. Also, the results for the “product formed from paraxanthine” value in [3] and in assay [3] (listed as 7-methylxanthine) were 126.9 ± 6.40 µM and 126.9 ± 6.4 µM, respectively. In addition, in assay [3] (from paraxanthine, after 13 minutes), the N-demethylation product present entry was “Approximately 39.9 μM”. In addition, the Products identified entry in [3] is reported as “xanthine”. Further, the “Relative N-demethylase activity” value is on record as 664.2 ± 61.1 in assay [3] (substrate conc. 200 μM) and 455.7 ± 17.6 in assay [3] (substrate conc. 500 μM).
